Legend:
[1] = tested on: HBV cccDNA; test: Southern blot detection of HBV cccDNA in infected HepG2-hNTCP 2B1; format: cell-based, hepatitis B virus; conditions: 5 μM, day 6 to day 12 after infection, compared with interferon IFNα 500 IU control group and blank group
Protocol: Southern blot experiment was carried out on a 10 cm^2 culture plate. About 5×10^6 HepG2-hNTCP 2B1 cells were plated in each 10 cm^2 culture plate, and medium B was added. After the cells adhered, medium A was used for replacement to perform the induction with Doxycycline during the whole experiment. HBV infection was performed 4 days after the induction with Doxycycline, and the amount of HBV for infection was 1000 MOI. Before infection, HBV was diluted in medium C to obtain HBV solution, and the infection volume was 5 mL. During infection, the cell supernatant was first removed by suction, the HBV solution was added to the cells, the cells were incubated for 24 hours, then the supernatant was collected as the sample of Day 0. Then the cells were washed three times with PBS, and fresh medium A was used for replacement. After that, the supernatant was collected every two days for detection, fresh medium A was used for replacement. […]

[2] = tested on: HBV cccDNA; test: Southern blot detection of HBV cccDNA in HepAD38; format: cell-based, hepatitis B virus; conditions: 5 μM, 8 days, inhibitory effect inferior to that of control group (ETV 5 μM)
Protocol: The Southern blot experiment was performed on 6 cm^2 culture plates. About 4.2×10^6 HepAD38 cells were plated in each 6 cm^2 culture plate, and medium G containing tetracycline hydrochloride (Tetracycline) was added. During the experiment, the medium G containing tetracycline hydrochloride was removed, and the drug-containing medium F was added at the same time for drug treatment, in which the treatment concentration of test drug Palovarotene was 5 μM, and the control group used Entecavir (ETV) at a concentration of 5 μM for treatment, and the treatment time was 8 days.
The specific Southern blot detection method was carried out with reference to Example 3.

[3] = tested on: HepG2 hNTCP 2B1; test: Safety assessment, CCK-8 cell activity, HepG2-hNTCP 2B1; format: cell-based; conditions: 1 μM, 5 μM and 25 μM, 6 days treatment
Protocol: This experiment was carried out in a 96-well culture plate, with 8×10^4 corresponding cells plated in each well, and the corresponding medium volume was 100 μL, in which each drug to be tested in the HepG2-hNTCP 2B1, HepaRG M14A and primary hepatocyte experimental groups had three final concentrations of 1 μM, 5 μM and 25 μM, each drug to be tested in the HepAD38 cell experimental group had two final concentrations of 1 μM and 5 μM (the drug was diluted with the corresponding medium to the final concentrations, specifically please refer to Example 1, Example 2, Example 4 and Example 5), and to the blank group the same volume of culture medium without drug was added. After the cells had grown to a suitable density, drug was added to perform treatment for 6 days, during which, the medium was changed every two days with fresh drug-containing medium. After the drug treatment, 110 μL of medium containing Beyotime CCK-8 cell activity detection reagent (purchased from Beyotime, Art. No. C0038) (the volume ratio of medium to CCK-8 reagent was 100:10) was used for replacement, the cells were incubated at 37° C. for 30 min, and then all the supernatant was collected for detection of absorbance. The absorbance value was read on PHOMO microplate reader purchased from Zhengzhou Autobio.

`CC1(C)CCC(C)(C)c2cc(Cn3cccn3)c(/C=C/c3ccc(C(=O)O)cc3)cc21` [Palovarotene] was tested, and the “level of HBV cccDNA (Southern blot)” value [1] was “significantly lower”, the “level of HBV cccDNA (Southern blot)” value [2] was “significantly inhibit” and the “CCK-8 absorbance value (cell activity) vs blank group” value [3] was “not significantly different”.

— patent publication US12569468B2, “Use of palovarotene in treatment against HBV virus” (YANG SHENG TANG COMPANY, LTD., priority 2020, dated 2026)
